Measured values published in patent US12269803B2, “Krüppel-like factor 15 (KLF15) small molecule agonists in kidney disease” (United States Government as represented by the Department …, priority 2020, dated 2025).
In brackets after ≈: the same amount, converted by molar mass. Entries after “also recorded” stand apart in the source; their conditions may differ.

How the values were obtained:
[1] = tested on: KLF15 promoter; assay: KLF15 reporter human podocyte assay (HTS, dose-response, primary screening); type: cell-based; conditions: for KLF15 reporter activity, primary screening assay: 1 μM, 24 hr, vs DMSO; for maximal KLF15 reporter activity: dose escalation, at similar concentrations to DEX; for EC50: dose-response curve, human podocytes, luciferase/renilla
Experimental: A stable reporter assay directed at KLF15 promoter region (4.3 kb region) was generated in human podocytes, a fragment of human KLF15 promoter upstream of the start codon, by amplifying and subcloning it into the firefly luciferase reporter plasmid (co-transfection with renilla to serve as internal controls). KLF15 promoter activity is measured as a ratio of luciferase to renilla activity. Using this reporter cell line, a cell-based HTS assay was developed using recently reported cell-seeding methodology specific to cultured podocytes (16).

[2] = tested on: human podocytes; assay: Podocyte survival (Renilla, cell viability) after LPS treatment; type: cell-based; conditions: LPS-treated human podocytes
Experimental: (§1) FIG. 10A-D show representative data illustrating the dose-response curve and EC50 (FIG. 10A), KLF15 reporter activity (FIG. 10B), and Renilla activity (cell viability) (FIG. 10C) in LPS-treated HP, and the therapeutic efficacy in abrogating albuminuria (biomarker of kidney disease) in LPS-treated mice (FIG. 10D).
(§2) After the synthesis of these novel analogues, a primary screening assay was conducted.

[3] = tested on: human podocytes; assay: Toxicity to human podocytes in primary screening assay (Renilla, cell viability); type: cell-based; conditions: 1 μM, 24 hr
Experimental: as §2

[4] = tested on: KLF15 reporter; assay: KLF15 reporter activity in LPS-treated human podocytes (podocyte stress model); type: cell-based
Experimental: as §1, §2

[5] = tested on: human liver microsomes; assay: Stability in human liver microsomes
Experimental: Mixed-gender human liver microsomes (Lot #1010420) were purchased from XenoTech. The reaction mixture, minus NADPH, was prepared as described below. […] The control compound, testosterone, was run simultaneously with the lead compounds in a separate reaction. The reaction mixture (without cofactor) was equilibrated in a shaking water bath at 37° C. for 3 minutes. The reaction was initiated by the addition of the cofactor, and the mixture was incubated in a shaking water bath at 37° C. Aliquots (100 μL) were withdrawn at 0, 10, 20, 30, and 60 minutes. Each lead compound and testosterone samples were immediately combined with 400 μL of ice-cold 50/50 acetonitrile (ACN)/H2O containing 0.1% formic acid and internal standard to terminate the reaction. The samples were then mixed and centrifuged to precipitate proteins. All samples were assayed by LC-MS/MS using electrospray ionization. The peak area response ratio (PARR) to internal standard was compared to the PARR at time 0 to determine the percent remaining at each time point. Half-lives and clearance were calculated using GraphPad software, fitting to a single-phase exponential decay equation.

[6] = tested on: LPS-treated mice; assay: LPS-induced albuminuria murine model; type: in vivo; conditions: C57BL/6 mice, LPS 10 μg/g, subcutaneous minipump 3.5 μg/day for 48 hours, vs DMSO
Experimental: Referring to FIG. 10D, C57BL/6 mice were treated with lipopolysaccharide (LPS) at dose of 10 μg/g in two divided doses 24 hours apart intraperitoneally to induce podocyte injury and albuminuria.

[7] = tested on: KLF15 promoter; assay: KLF15 promoter activity in human podocytes, KLF15 agonist combined with dexamethasone; type: cell-based; conditions: for KLF15 promoter activity, single agent: alone (DEX 1 μM), vs DMSO-treated human podocytes; for KLF15 promoter activity, combination with DEX: vs DEX 1 μM
[8] = tested on: Caco-2 cells (clone C2BBe1); assay: Caco-2 permeability; type: in vitro ADME; conditions: for Papp AVG / Papp R1 / Recovery: 5 μM, 120 minutes; for Efflux Ratio / Significant Efflux: Caco-2; for Absorption Potential Classification: Caco-2, from Papp (A-to-B)
Experimental: Caco-2 cells (clone C2BBe1) were obtained from American Type Culture Collection (Manassas, VA). Cell monolayers were grown to confluence on collagen-coated, microporous membranes in 12-well assay plates. Details of the plates and their certification are shown below. The permeability assay buffer was Hanks' balanced salt solution containing 10 mM HEPES and 15 mM glucose at a pH of 7.4. The buffer in the receiver chamber also contained 1% bovine serum albumin. The dosing solution concentration was 5 μM of lead compound in the assay buffer. Cell monolayers were dosed on the apical side (A-to-B) or basolateral side (B-to-A) and incubated at 37° C. with 5% CO2 in a humidified incubator. Samples were taken from the donor and receiver chambers at 120 minutes. Each determination was performed in duplicate. The flux of lucifer yellow was also measured post-experimentally for each monolayer to ensure no damage was inflicted to the cell monolayers during the flux period. […] The apparent permeability (Papp) and percent recovery were calculated and provided.

[9] = Stability in pH 7.4 phosphate buffer; type: physicochemical; conditions: 37° C., 1 μM
Experimental: Studies were carried out in pH 7.4 phosphate buffer. The buffer was prepared by combining 50 mL of 0.2 M KH2PO4 with 150 mL of H2O, and then adjusting to pH 7.4 with 10 N NaOH. The buffer was adjusted to pH 7.4 prior to initiating the experiments. […] Aliquots of the DMSO solutions were dosed into 0.5 mL of matrix, which had been pre-warmed to 37° C., at a final lead compound concentration of 1 μM. Individual tubes were dosed for each timepoint. The vials were kept in a benchtop Thermomixer for the duration of the experiment. At each time point (0, 30, 60, and 120 minutes), an equal volume of acetonitrile was added to the appropriate tubes. Samples were stored at 4° C. until the end of the experiment. After the final time point was sampled, the plate was mixed and then centrifuged at 3,000 rpm for 10 minutes. Aliquots of the supernatant were removed, diluted 1:1 into distilled water, and analyzed by LC-MS/MS.

[10] = Equilibrium solubility in aqueous buffers; type: physicochemical
Experimental: The pH 2.0 buffer was prepared by combining 50 mL of 0.2 M KCl with 150 mL of H2O, and then adjusting to pH 2.0 with 10 N HCl. […] The pH 7.4 buffer was prepared by combining 50 mL of 0.2 M KH2PO4 with 150 mL of H2O, and then adjusting to pH 7.4 with 10 N NaOH. At least 0.3 mg of powder for each lead compound was combined with 1 mL of each buffer to make a ≥0.3 mg/mL mixture. These samples were shaken on a Thermomixer® overnight at room temperature. The samples were then centrifuged for 10 minutes at 14,000 rpm. The supernatant was sampled and diluted in duplicate 10-, 100-, 1,000-, and 10,000-fold into a mixture of 1:1 buffer:acetonitrile (ACN) prior to analysis. […] Standard concentrations ranged from 1.0 μM to 0.3 nM.

[11] = human liver microsomes, 1 μM, 37° C.
[12] = human liver microsomes, Clint = k/P
[13] = pH 2, room temperature overnight
[14] = pH 4, room temperature overnight
[15] = pH 7.4, room temperature overnight

SMILES	KLF15 reporter activity, primary screening assay [1]	podocyte survival after LPS treatment [2]	toxicity to human podocytes [3]	KLF15 reporter activity after LPS treatment [4]	maximal KLF15 reporter activity [1]	albuminuria [6]	KLF15 promoter activity, single agent [7]	KLF15 promoter activity, combination with DEX ([7]; compound 0.5 μM + DEX 0.5 μM)	Papp AVG ([8]; A-to-B)	Papp R1 ([8]; A-to-B)	Recovery ([8]; A-to-B)	Papp AVG ([8]; B-to-A)	Papp R1 ([8]; B-to-A)	Recovery ([8]; B-to-A)	Efflux Ratio [8]	Significant Efflux [8]	Absorption Potential Classification [8]	Percent Remaining 0 min [9]	Percent Remaining 30 min [9]	Percent Remaining 60 min [9]	other results
CSc1ccc(-c2nc(-c3ccc(O)cc3)no2)cc1 [BT514]	significantly induced KLF15 reporter activity	improved; also recorded: improve podocyte survival	no observed toxicity	improved KLF15 reporter activity																	
CSc1ccc(NC(=O)Nc2ccc(C)nc2)cc1 [BT503]	significantly induced KLF15 reporter activity	improved; also recorded: improve podocyte survival	no observed toxicity	improved KLF15 reporter activity	higher maximal KLF15 reporter activity	significantly reduced albuminuria	significantly induced KLF15 promoter activity	synergistic effect	10.7 10^−6 cm/s	13.1 10^−6 cm/s	59.7%	9.7 10^−6 cm/s	9.06 10^−6 cm/s	69%	0.909	No (Significant Efflux: ER ≥ 2.0 and Papp (B-to-A) ≥ 1.0 × 10^−6 cm/s)	High (Papp (A-to-B) ≥ 1.0 × 10^−6 cm/s: High)	100	90.6	87.6	Half-Life [5, 11]: 13 min; Percent Remaining 0 min [5, 11]: 100; Percent Remaining 10 min [5, 11]: 60.1; Percent Remaining 20 min [5, 11]: 35.3; Percent Remaining 30 min [5, 11]: 18.5; Percent Remaining 60 min [5, 11]: 3.3; CLint (intrinsic clearance) [5, 12]: 0.107 mL/min/mg protein; EC50 [1]: ~0.0071 µM; KLF15 promoter activity, combination with DEX ([7]; compound 10 nM + DEX 0.5 μM): synergistic effect; KLF15 promoter activity, combination with DEX ([7]; compound 100 nM + DEX 0.5 μM): synergistic effect; Percent Remaining 120 min [9]: 80.5; Solubility AVG [10, 13]: 343 µM (≈ 93.8 µg/mL); Solubility R1 [10, 13]: 332 µM (≈ 90.8 µg/mL); Solubility AVG [10, 14]: 17.3 µM (≈ 4.73 µg/mL); Solubility R1 [10, 14]: 17.4 µM (≈ 4.76 µg/mL); Solubility AVG [10, 15]: 34.5 µM (≈ 9.43 µg/mL); Solubility R1 [10, 15]: 31.6 µM (≈ 8.64 µg/mL)
C[C@@H]1C[C@H]2[C@@H]3CCC4=CC(=O)C=C[C@]4(C)[C@@]3(F)[C@@H](O)C[C@]2(C)[C@@]1(O)C(=O)CO [DEX, dexamethasone, reference compound]																					EC50 [1]: 5.41 µM
CC1(C)OB(c2ccc(C(N)=NO)cc2)OC1(C)C [BT506]			Toxicity																		
CSc1ccc(NC(=O)Nc2ccc(C#N)cn2)cc1 [BT502]	significantly induced KLF15 reporter activity	improved	no observed toxicity	improved KLF15 reporter activity	higher maximal KLF15 reporter activity	significantly reduced albuminuria	significantly induced KLF15 promoter activity	synergistic effect	15.2 10^−6 cm/s	14.6 10^−6 cm/s	63.1%	7.34 10^−6 cm/s	6.35 10^−6 cm/s	67.1%	0.481	No (Significant Efflux: ER ≥ 2.0 and Papp (B-to-A) ≥ 1.0 × 10^−6 cm/s)	High (Papp (A-to-B) ≥ 1.0 × 10^−6 cm/s: High)	100	99.7	87	Half-Life [5, 11]: 17 min; Percent Remaining 0 min [5, 11]: 100; Percent Remaining 10 min [5, 11]: 63.9; Percent Remaining 20 min [5, 11]: 45.3; Percent Remaining 30 min [5, 11]: 29.6; Percent Remaining 60 min [5, 11]: 8.53; CLint (intrinsic clearance) [5, 12]: 0.0813 mL/min/mg protein; KLF15 promoter activity, combination with DEX ([7]; compound 100 nM + DEX 0.5 μM): synergistic effect; Percent Remaining 120 min [9]: 88.7; Solubility AVG [10, 13]: 22.2 µM (≈ 6.31 µg/mL); Solubility R1 [10, 13]: 21.8 µM (≈ 6.2 µg/mL); Solubility AVG [10, 14]: 10.4 µM (≈ 2.96 µg/mL); Solubility R1 [10, 14]: 10.4 µM (≈ 2.96 µg/mL); Solubility AVG [10, 15]: 28.1 µM (≈ 7.99 µg/mL); Solubility R1 [10, 15]: 28.4 µM (≈ 8.08 µg/mL)
CSc1ccc(NC(=O)c2ccc(O)cc2)cc1 [BT501]	significantly induced KLF15 reporter activity	improve podocyte survival	no observed toxicity		higher maximal KLF15 reporter activity	significantly reduced albuminuria	significantly induced KLF15 promoter activity	synergistic effect	35.5 10^−6 cm/s	32.5 10^−6 cm/s	66.7%	35 10^−6 cm/s	32.5 10^−6 cm/s	81.7%	0.987	No (Significant Efflux: ER ≥ 2.0 and Papp (B-to-A) ≥ 1.0 × 10^−6 cm/s)	High (Papp (A-to-B) ≥ 1.0 × 10^−6 cm/s: High)	100	88.4	92.1	CLint (intrinsic clearance) ([5]; human, microsomes): 0.0387 mL/min/mg protein; Half-Life ([5]; human, microsomes): 35.8 min; Percent Remaining 120 min [9]: 87.7; Solubility AVG [10, 13]: 97.7 µM (≈ 25.3 µg/mL); Solubility R1 [10, 13]: 99.7 µM (≈ 25.9 µg/mL); Solubility AVG [10, 14]: 153 µM (≈ 39.7 µg/mL); Solubility R1 [10, 14]: 157 µM (≈ 40.7 µg/mL); Solubility AVG [10, 15]: 269 µM (≈ 69.8 µg/mL); Solubility R1 [10, 15]: 279 µM (≈ 72.4 µg/mL)
CSc1ccc(NC(=O)Nc2ccc(B3OC(C)(C)C(C)(C)O3)cc2)cc1 [BT412]	significantly induced KLF15 reporter activity	improved; also recorded: improve podocyte survival	no observed toxicity	improved KLF15 reporter activity	higher maximal KLF15 reporter activity																
